According to US5416194A, “Polypeptide having affinity for lipopolysaccharide and method for preparing the same” (Seikagaku Kogyo Co., Ltd., priority 1987, dated 1995):
Where no end group is shown, it is not given here.

Columns and labels:
[1] = system: Spleen cells (SC) of C57BL male mouse; assay: Inhibition of blastogenesis of mouse lymphocyte by LPS (3H-TdR uptake, microscopy); type: cell-based; conditions: for magnification and colonization (blastogenesis) under the microscope: then 50 μg/ml LPS, three days; for inhibition of blastogenesis of lymphocyte: in the presence of LPS, 72 hours, 3H-TdR, FIG. 5
Protocol: Spleen cells (SC) of C57BL male mouse (5 weeks age) was collected by use of Ficoll-Hypaque gravity centrifugation and suspended in RPMI-1640 culture medium (no serum or added with BSA, FCS). The resulting culture medium was adjusted to 3×10^6 cell/ml and 100 μl was distributed into each of the 96-holes of a microtiter plate. 10 μl each of 0.4, 4, 40 and 400 μg/ml polypeptide of the present invention (LBP), finally then 80 μl of the culture medium, and finally 10 μl of 400 μg/ml LPS were added to the distibuted culture medium, followed by incubation in 5% CO2 incubator for 72 hours. ^3 H-thymidine (^3 H-TdR) was added thereto in an amount of 1 μci/10 μl 18 hours before completion of the incubation. The amount of ^3 H-TdR collected after peeling off of cells by use of cell harvester was measured by use of a liquid scintillation counter to discover the index of cell multiplication.
Cell multiplication was observed by using a microscope to take an insert image microphotograph.

[2] = system: C factor (activation with LPS derived from E. coli 0111 B4 strain); assay: Inhibition of activation of C factor by LPS; type: biochemical, Horseshoe crab
Protocol: The acidic extract, concentrated and dried, was redissolved in 20mM HCl aq. soln. and then added into a Sephadex G-50 column (3.0×90.0 cm) (previously equilibrated with 20mM HCl aq. soln.) to effect gel filtration. The eluted fractions inhibiting activation of C factor with LPS (one derived from E. coli 0111 B4 strain was used) (Horseshoe crab blood coagulating serine protease precursor; LPS-sensitive factor named by the present inventors, Nakamura et al., Eur. J. Biochem., 154, 511 (1986 ) ) were collected, and the pH of the pooled fractions was adjusted to 6.0 with NaOH aq. soln.
The test results for the inhibition effect of the polypeptide (SEQ ID NO: 1) of the present invention against activation of C factor by LPS are shown in FIG. 2 and FIG. 3. FIG. 2 and FIG. 3 show the results in the absence or presence (1M) of sodium chloride, respectively. […] This property of binding electrically with LPS has been discovered by the present inventors. In FIG. 2 and FIG. 3, the marks (o) and show the results of the polypeptide of the present invention and polylysine, respectively.

[3] = system: non-sensitized erythrocyte; type: cell-based, human
[4] = system: LPS sensitized erythrocyte (human O-type); assay: Hemolysis activity on LPS sensitized erythrocyte; type: cell-based
Protocol: To 1 ml of suspension containing mainly 2.5% human O-type erythrocyte, 0.5 ml of LPS (1 mg/ml ) was added and the mixture was shaken at […] for 1 hour to mix, followed by washing with saline solution.
A mixture of 50 μl of 0.5% LPS sensitized erythrocyte, 50 μl of 2-fold series diluted solution of 0.5% polypeptide of the present invention and 100 μl of Tris-HCl-buffered saline saline buffer (pH 7.2) was maintained at 37° C. for 1 hour and thereafter 2.3 ml of physiologic saline was added thereto, followed by centrifugation with 2,500 rpm for 10 minutes. The amount of hemoglobin in the supernatant was determined by use of […] absorption. Also, the hemolysis pattern on a micro plate was determined by use of a micro plate reader (Corona MPT-100: trade name) after maintaining a mixture of 50 μl of 0.5% LPS sensitized erythrocyte and 50 μl of 2-fold series diluted solution of 0.5% polypeptide at 37° C. for 1 hour.

bacteria = assay: Antibacterial activity in general, inhibition circle on agar containing bacteria; type: cell-based
Protocol: (§1) Twenty μl of a 2-fold series diluted solution containing 0.5% polypeptide (SEQ ID NO: 1) of the present invention and 20 μl of bacterium solution (10^6 to 10^7/ ml) were cultured onto 160 μl of a culture medium of Penassay or a synthetic medium of Jarvis. After 18 hours at 37° C., its turbidity was measured by use of a micro plate reader at 550 nm and also partial live bacteria number and inhibition circle were measured.

[5] = system: Salmonella typhimurium LT 2(S); assay: Antibacterial activity; type: cell-based
Protocol: as §1

[6] = system: Salmonella minnesota 1114 W(S); assay: Antibacterial activity; type: cell-based
Protocol: as §1

[7] = system: Salmonella minnesota R 595(Re); assay: Antibacterial activity; type: cell-based
Protocol: as §1

[8] = system: Salmonella typhimurium 1102(Re); assay: Antibacterial activity; type: cell-based
Protocol: as §1

Staphylococcus aureus = assay: Antibacterial activity; type: cell-based; conditions: Gram positive bacteria
Protocol: as §1

[9] = Gel precipitin reaction / double diffusion test in 1% agarose gel; type: binding
Protocol: In a solution of 1% agarose (0.1% NaN3 was added) dissolved in Tris-HCl-physiologic saline of pH 7.2, Beronall buffer of pH 8.6 and acetate buffer of pH 4.6, a sedimentation line was formed between LPS and the polypeptide (SEQ ID NO: 1) of the present invention or anti-LPS factor {basic protein having MW of 11,600, consisting of amino acid 102 residue obtained from extract (lysate) of Tachypleus tridentatus hemocyte; hereinafter referred to "ALF"}. The line was dyed in amide black. The diluent used for the polypeptide of the present invention was 50 mM Tris HCl--0.15M NaCl (pH 7.2).

[10] = system: Peripheral blood mononuclear cells of healthy human; assay: Inhibition of blastogenesis of human peripheral lymphocyte by LPS (3H-TdR uptake); type: cell-based; conditions: 10 μg/ml LBP, 50 μg/ml LPS, 72 hours, FIG. 10
Protocol: Peripheral blood mononuclear cells (PBNC)of healthy human ([…]) were collected by use of Ficoll-Hypaque gravity centrifugation and suspended in RPMI-1640 culture medium (no serum or added with BSA, FCS). The resulting culture medium was adjusted to 2×10^6 cell/ml and 100 μl was distributed into each of the 96-holes of a microtiter plate. 10 μl of 200 μg/ml LBP, then 80 μl of the culture medium, and finally 10 μl of 400 μg/ml LPS were added to the distributed culture medium, followed by incubation in 5% CO2 incubator for, 72 hours. ^3 H-thymidine (^3 H-TdR) was added thereto in an amount of 1 μci/10 μl 18 hours before completion of the incubation. The amount of ^3 H-TdR collected after peeling of cells by use of cell harvester was measured by use of a liquid scintillation counter to discover the index of cell multiplication.

Substance: polypeptide (SEQ ID NO: 1): 17 amino acid polypeptide isolated from Tachypleus tridentatus hemocyte and also made by solid phase synthesis; C-end arginine amidated (KWCFRVCYRGICYRRCR-NH2; cysteine pairing not given here)
- magnification and colonization (blastogenesis) under the microscope ([1]; 0.2 μg/ml LBP, FIG. 7): few change were revealed
- magnification and colonization (blastogenesis) under the microscope ([1]; 2 μg/ml LBP, FIG. 8): magnification and colonization were hardly revealed
- inhibition of blastogenesis of lymphocyte ([1]; 2 μg/ml LBP): ≥ 90%
- magnification and colonization (blastogenesis) under the microscope ([1]; 20 μg/ml LBP, FIG. 9): magnification and colonization were hardly revealed
- inhibition of blastogenesis of lymphocyte ([1]; 20 μg/ml LBP): ≥ 90%
- concentration inhibiting activation of C factor with LPS 50% ([2]; 0.1 μg/ml of LPS (E. coli 0111 B4)): 0.12 µg/mL
- IC50 ([2]; 0.1 μg/ml of LPS (E. coli 0111 B4), read-out: concentration inhibiting activation of C factor with LPS 50%): 50 nM
- influence of salt concentration on inhibition of C factor activation by LPS ([2]; absence or presence (1M) of sodium chloride, FIG. 2 and FIG. 3, polylysine as control): strong affinity for LPS which is not influenced by the salt concentration
- binding activity between LBP and LPS, C factor activity inhibition as index ([2]; amount of LBP relative to amount of LPS): about 20 times amount of LPS amount
- inhibition of activation of C factor with LPS ([2]; at 1 μM (2.3 μg/ml) polypeptide, 0.1 μg/ml of LPS (E. coli 0111 B4)): completely
- amount at which hemolysis of non-sensitized erythrocyte was observed [3]: ≥ 3.13 μ/ml
- hemolysis activity compared with ALF ([4]; ALF = anti-LPS factor, basic protein of MW 11,600 from Tachypleus tridentatus hemocyte lysate): weaker than that of ALF
- effect of free LPS on hemolysis ([4]; free LPS added): hemolysis was inhibited by a free LPS
- hemolysis at room temperature ([4]; high concentration, room temperature): exhibited hemolysis with ease
- antibacterial activity compared with ALF (bacteria; ALF = anti-LPS factor from Tachypleus tridentatus hemocyte lysate): generally stronger than that of ALF
- inhibition circle (bacteria; on an agar containing bacteria): formed depending on the concentration
- antibacterial activity [5]: exhibited antibacterial activity
- minimum antibacterial dose ([5]; 18 hours at 37° C.): 3.13 µg/mL
- antibacterial activity [6]: exhibited antibacterial activity
- antibacterial activity [7]: exhibited antibacterial activity
- antibacterial activity [8]: exhibited antibacterial activity
- minimum antibacterial dose ([8]; 18 hours at 37° C.): 1.56 µg/mL
- antibacterial activity (Staphylococcus aureus): exhibited antibacterial activity
- sedimentation line with LPS in the double diffusion test ([9]; 1% agarose gel): form a sedimentation line
- sedimentation lines in the gel precipitation reaction ([9]; any LPS of Salmonella minnesota 1114 W, R595, E. coli 0111:B4, 0113 and J5): sharp sedimentation lines
- inhibition of blastogenesis of lymphocyte [10]: approximately 100%
